# Patent publication US6969763B1, “Molecular interaction sites of interleukin-2 RNA and methods of modulating the same” (priority 1999, dated 2005)
# Read-outs that look alike come from different tables or passages of the source.
# Columns and labels:
# TAR RNA / tat peptide = assay: disruption of TAR RNA interaction with tat peptide; format: binding, HIV
# luciferase mRNA = assay: wheat germ lysate translation of control luciferase mRNA (luc+9); format: biochemical; settings: in words
# From the text: It is believed that stabilization of mRNA structures near the 5′-cap also could be effected by specific “small” molecules, and that such binding would reduce the translational efficiency of the mRNA. To test this hypothesis, a plasmid was constructed containing the luciferase message behind a 5′-UTR containing a 27-mer RNA construct of the HIV TAR stem-loop bulge whose structure had been determined by NMR.
# TAR = settings: in words, assay not described
# [1] = tested on: HIV TAR RNA structure in the 5'-UTR of luciferase mRNA; assay: wheat germ lysate translation of luciferase mRNA containing the TAR RNA structure in the 5'-UTR; format: biochemical
# From the text: It is believed that stabilization of mRNA structures near the 5′-cap also could be effected by specific “small” molecules, and that such binding would reduce the translational efficiency of the mRNA. To test this hypothesis, a plasmid was constructed containing the luciferase message behind a 5′-UTR containing a 27-mer RNA construct of the HIV TAR stem-loop bulge whose structure had been determined by NMR. The resulting mRNA could be expressed and capped in a wheat germ lysate translation system supplemented with T7 polymerase following addition of m^7G to the lysate (see, FIG. 38A). Insertion of a 9-base leader before the TAR structure (HIVluc+9) enhanced the translational efficiency, presumably by allowing the pre-initiation complex to form. The helicase activity associated with the pre-initiation complex can transiently melt out the TAR RNA structure, and the message is translated (see, FIG. 38A).
# E. coli = assay: high throughput screening assay for antibacterial activity (MIC); format: cell-based; settings: Escherichia coli, read-out: minimum inhibitory concentrations (MIC's)
# From the text: This activity was verified by manual solution synthesis of analytically pure material as described in Example 6 above, which had identical activity.
# [2] = molecular target: 16S rRNA A-site 27-mer RNA model; assay: ESI-FTICR mass spectrometry (MASS) binding to 16S A-site 27-mer RNA model; set-up: species or system prokaryotic; settings: for Kd: 16S A site 27mer, read-out: MS-measured dissociation constant (KD); for complex formation with 16S A site RNA: aminoglycosides 500 nM each, in words
# Method: (§1) The ESI-FTICR mass spectrum depicted in FIG. 70 was acquired from a […] mixture of untagged 16S and tagged 18S in the presence of an equimolar mixture of five aminoglycosides. It is to be understood that other biomolecules may be used in place of the aminoglycosides. The aminoglycosides have been selected from two classes of 2-deoxystreptamines: 4,5-disubstituted (paromomycin, and lividomycin), and 4,6-disubstituted (tobramycin, sisomicin, and bekanamycin), present at 500 nM each. Complexes corresponding to 1:1 binding of individual aminoglycosides were observed between 16S and all members of the aminoglycoside mixture, with the apparent affinities estimated from the abundances of the respective complexes differing substantially. Signal intensities from the complexes with paromomycin (m/z 1925.572) and lividomycin (m/z 1954.790) are consistent with MS-measured dissociation constants of 110 nM and 28 nM, respectively. The intensities of 16S complexes with tobramycin (m/z 1895.960), bekanamycin (m/z 1899.171), and sisomicin (m/z 1891.972) were reduced, consistent with solution dissociation constants of […]. Wang, et al., Biochemistry, 1997, 36, 768-779. […] The spectrum is calibrated using multiple isotope peaks of the (M−5H^+)^5- and (M−4H^+)^4- charge states of the free RNA as internal mass standards which brackets the m/z range in which complexes are observed. The average mass measurement error obtained for the complexes in FIG. 70 is 2.1 ppm when m/z differences are measured between the most abundant (4 ^13C) isotope peak of 16S and each complex. This post calibration scheme is easily automated which enables rapid, high precision mass measurements of affinity selected ligands against multiple targets in a high throughput mode.
# ESI-MS measurements of a solution containing a fixed concentration of RNA at different concentrations of ligand were obtained. By measuring the ratio of bound:unbound RNA at varying ligand concentrations, the Kd was determined by 1/slope of the “titration curve”. The MS derived value of 110 nM is in good agreement with previously reported literature value of 200 nM.
# Paromomycin, lividomycin (MW=761.354 Da), sisomicin (MW=447.269 Da), tobramycin (MW=467.2591 Da), and bekanamycin (MW=483.254 Da) were obtained from Sigma (St. Louis, Mo.) and ICN (Costa Mesa, Calif.) and were dissolved to generate 10 mM stock solutions. 2′ methoxy analogs of RNA constructs representing the prokaryotic (16S).rRNA and eukaryotic (18S) rRNA A-site (FIG. 68) were synthesized in house and precipitated twice from 1 M ammonium acetate following deprotection with ammonia (pH 8.5). The mass-tagged constructs contained an 18-atom mass tag (C12H25O9) attached to the 5′-terminus of the RNA oligomer through a phosphodiester linkage.
# All mass spectrometry experiments were performed using an Apex 11 70e electrospray ionization Fourier transform ion cyclotron resonance mass spectrometer (Bruker Daltonics, Billerica) employing an actively shielded 7 tesla superconducting magnet. RNA solutions were prepared in 50 mM NH4OAc (pH 7), mixed 1: v:v with isopropanol to aid desolvation, and infused at a rate of […] using a syringe pump. Ions were formed in a modified electrospray source (Analytica, Branford) employing an off axis, grounded electrospray probe positioned ca. 1.5 cm from the metalized terminus of the glass desolvation capillary biased at 5000 V. A counter-current flow of dry oxygen gas heated to 225° C. was employed to assist in the desolvation process. Ions were accumulated in an external ion reservoir comprised of an RF-only hexapole, a skimmer cone, and an auxiliary electrode for 1000 ms prior to transfer into the trapped ion cell for mass analysis. Each spectrum was the result of the coaddition of 16 transients comprised of 256 datapoints acquired over a 90,909 kHz bandwidth resulting in a 700 ms detection interval. […]
# [3] = molecular target: 27-mer model RNA sequence of the 16S A-site; assay: MASS assay with the 27-mer model RNA sequence of the 16S A-site (Table 6); format: binding; settings: 27-mer model RNA of the 16S A-site
# Method: (§2) The compounds are screened for binding affinity using MASS or conventional high-throughput functional screens. […] The MASS assay was performed with the 27-mer model RNA sequence of the 16S A-site whose NMR structure has been determined. The transcription/translation assay was based on expression of a luciferase plasmid.
# (§3) Paromomycin is an aminoglycoside antibiotic known to bind to the A-site RNA structure. The NMR structure was determined with paromomycin bound at the A-site.
# [4] = tested on: 18S rRNA A-site 27-mer RNA model; assay: ESI-FTICR mass spectrometry binding to mass-tagged 18S A-site 27-mer RNA model; set-up: species or system eukaryotic; settings: aminoglycosides 500 nM each, in words
# Method: as §1, with “The” for “The spectrum is calibrated using multiple isotope peaks of the (M−5H^+)^5- and (M−4H^+)^4- charge states of the free RNA as internal mass standards which brackets the m/z range in which complexes are observed. The”, “This post calibration scheme is easily automated which enables rapid, high precision mass measurements of affinity selected ligands against multiple targets in a high throughput mode.” left out
# [5] = tested on: translation of a luciferase plasmid; assay: transcription/translation assay based on expression of a luciferase plasmid; format: biochemical; settings: inhibition of translation of a luciferase plasmid
# Method: as §2, §3
# [6] = molecular target: decoding region of the prokaryotic 16S rRNA (the A-site); settings: 16S A-site, read-out: solution dissociation constant (literature), cited from earlier work
compound,measurement,setting,value
CNc1ccc(NCCO)c2c1C(=O)c1ccccc1C2=O [ACD 00001199],concentration disrupting the TAR RNA interaction with tat peptide,TAR RNA / tat peptide,1 µM
same,inhibition of translation of the luciferase mRNA (control),luciferase mRNA,some inhibition of translation at very high concentrations
same,"IC5, values",TAR,low
same,inhibition of translation of luciferase mRNA containing TAR RNA structure,[1]; in words,dose-dependent inhibition of translation
same,IC50,"[1]; luciferase mRNA containing the TAR RNA structure in the 5'-UTR, read-out: concentration reducing translation by 50%",50 µM
"O=C(NO)[C@@H](Cc1ccc2ccccc2c1)NS(=O)(=O)c1ccc2ccccc2c1 [Compound 5-n-ii, (2R)-3-(2-naphthyl)-2-((2-naphthylsulfonyl)amino)propanehydroxamic acid]",MIC,E. coli,0.7 to 1.5 µM
"O=C(NO)[C@@H](Cc1ccc2ccccc2c1)NS(=O)(=O)c1ccc(Br)cc1 [Compound 5n-vi, (2R)-2-(((4-bromophenyl)sulfonyl)amino)-3-(2-naphthyl)propanehydroxamic acid]",MIC,E. coli,3 to 6 µM
NC[C@@H]1O[C@H](O[C@H]2[C@@H](O)[C@H](O[C@@H]3[C@@H](O)[C@H](N)C[C@H](N)[C@H]3O[C@H]3O[C@H](CO)[C@@H](O)[C@H](O)[C@H]3N)O[C@@H]2CO)[C@H](N)[C@@H](O)[C@@H]1O [Paromomycin],Kd,[2],110 nM
same,complex formation with 16S A site RNA,[2],High affinity complexes
same,Kd,[3],500 nM
same,complex formation with 18S A site RNA,[4],complete absence of complexes
same,Activity^1,[5],0.3 µM
same,Kd,[6]; listed as paromomycin,200 nM
same,Kd,[6],~200 nM
NC[C@H]1O[C@H](O[C@H]2[C@H](O)[C@@H](O[C@H]3O[C@H](CO)[C@@H](O)[C@H](N)[C@H]3O)[C@H](N)C[C@@H]2N)[C@H](N)[C@@H](O)[C@@H]1O [bekanamycin],complex formation with 16S A site RNA,[2],Weaker complexes
NC[C@@H]1O[C@H](O[C@H]2[C@@H](O)[C@H](O[C@@H]3[C@@H](O)[C@H](N)C[C@H](N)[C@H]3O[C@H]3O[C@H](CO)[C@@H](O)C[C@H]3N)O[C@@H]2CO)[C@H](N)[C@@H](O)[C@@H]1O[C@H]1O[C@H](CO)[C@@H](O)[C@H](O)[C@@H]1O [lividomycin],enhancement of binding affinity for 16S relative to paromomycin,[2],~4 fold
same,Kd,[2],28 nM
same,complex formation with 16S A site RNA,[2],High affinity complexes
same,complex formation with 18S A site RNA,[4],complete absence of complexes
CN[C@@H]1[C@@H](O)[C@@H](O[C@@H]2[C@@H](O)[C@H](O[C@H]3OC(CN)=CC[C@H]3N)[C@@H](N)C[C@H]2N)OC[C@]1(C)O [sisomicin],complex formation with 16S A site RNA,[2],Weaker complexes
NC[C@H]1O[C@H](O[C@H]2[C@H](O)[C@@H](O[C@H]3O[C@H](CO)[C@@H](O)[C@H](N)[C@H]3O)[C@H](N)C[C@@H]2N)[C@H](N)C[C@@H]1O [tobramycin],complex formation with 16S A site RNA,[2],Weaker complexes
